EP0981359B1, “COMPOSITIONS FOR ENHANCING IMMUNOSUPPRESSANTS' PHARMACOLOGICAL ACTIVITIES” (Zavialov, Vladimir Petrovich, priority 1997, dated 1998)

Experiments:
[1] = system: human peripheral cells; experiment: mitogen (PHA)-driven proliferation, [3H]-thymidine incorporation; type: cell-based
Experimental: Ninety five ml of blood were taken from each of 10 volunteer donors, and 5 ml of 3-5% EDTA were added to the blood immediately and mixed carefully to prevent coagulation. The blood was than mixed with the equal volume of medium 199 or with buffered physiological salt solution. Ficoll-Paque (Pharmacia) was poured into plastic centrifuge test-tubes with caps (Costar) (3 ml of Ficoll-Paque per each test-tube, volume of a test-tube - 15 ml, diameter - 13 mm at room temperature, and then 6-7 ml of diluted blood were carefully layered on top). The test-tubes were centrifuged at 20 °C for 40 minutes, at 400 g, with the brake of centrifuge being switched off. The mononuclear cells formed a layer on the border of the liquid division and the cells were collected with a Pasteur pipette into a centrifuge test-tube with 5 ml of RPMI 1640, containing 2% of inactivated fetal serum and penicillin (100 units/ml) with streptomycin (100 units/ml). Then the cells were washed with physiological buffer solution (PBS) three times with centrifuging at 400 g for 5 minutes at the temperature of +8 °C. When the concentration of the cells was 2.5^·10^6 cells/ml, they were placed in RPMI 1640 medium, containing 5% of fetal serum (heated for 30 minutes at 56 °C), 100 units/ml of penicillin, 100 units/ml of streptomycin, 1 ml 200 mM of L-glutamine per 100 ml of serum. All the reagents were produced by Gibco. The cells were dropped into a 96-well plate (100 µl per each plate) with mitogen - phytohemagglutinin (PHA) (final concentration - […]), the preparations under study and immunosuppressants (cyclosporin A, FK506 or rapamycin) in concentration - […]) were pipetted into the tubes beforehand. The plate was placed in a CO2-incubator at 5% CO2 with humid atmosphere for 72 hours. 12-18 hours before the completion of the incubation […] of [^3H]-thymidine was added into each well. […] The number of disintegrations per minute was counted using a Minibeta counter (LKB). The stimulation index was determined by arithmetical mean of at least three parallel measurements ±SD to the corresponding control.

[2] = system: human T-lymphoblastoid cell line MT-4; experiment: proliferation of IFN-sensitive T-lymphoblastoid cell line; type: cell-based; settings: MT-4 cell line
[3] = molecular target: common receptors on mouse thymocytes; settings: cited from earlier work

In the case of “α-peptoferon: octapeptide corresponding to the high-affinity binding/anti-lymphoproliferative site of hIFN-α2 (TMα1-like sequence 130-137) (LKEKKYSP; UniProt P01563 153-160, looked up, fragment)”, the “effect on mitogen (PHA)-driven proliferation (lymphoproliferative response)” value ([1]; PHA, 72 hours, no immunosuppressant) is reported as “inhibited by rhIFN-α2 and a-peptoferon in a dose-dependent fashion”, the “effect on PHA-driven proliferation compared with rhIFN-α2” value ([1]; PHA, no immunosuppressant) is reported as “comparable effects” and the “effect on PHA-driven proliferation in the presence of cyclosporin A” value ([1]; in the presence of 20 mM CsA in cultural medium, rhIFN-α2 at 10^-16 M) is reported as “comparable effect”. For the same substance, the “effect on the proliferation of MT-4” value [2] was “inhibited by rhIFN-α2 and a-peptoferon in a dose-dependent fashion”, the “effect on the proliferation of MT-4 compared with rhIFN-α2” value [2] was “comparable effects” and the Ki ([3]; mouse thymocytes, read-out: Ki of recombinant (r)hIFN-α2 binding by α-peptoferon) was ~1 pM. The “affinity to the specific receptors in comparison with recombinant hIFN-α2” value ([3]; previous studies) was “the same or higher affinity”.
